What was measured:
human mGluR5a receptor [1] = target: T1, human mGluR5a receptor (Homo sapiens, UniProt P41594); assay: Functional Assay 3: as Functional Assay 2 but clone H12H; assay type: cell-based; details: for EC50: glutamate EC20; for Emax: maximum average response at a single concentration
T1 construct: host or cells: HEK293A (monoclones H10H and H12H)
Method: (§1) HEK cells transfected with the human mGluR5a receptor (H10H cell line) were plated at 15.000 cells/well in clear-bottomed poly-D-lysine-coated assay plates (BD Falcon) in glutamate-glutamine-free growth medium and incubated overnight at 37° C. and 5% CO2. The following day, the growth medium was removed and the cells were washed with assay buffer containing 1× Hank's balanced salt solution (Invitrogen, Carlsbad, Calif.), 20 mM HEPES, 2.5 mM probenecid, pH 7.4 and left with 20 μL of this reagent. Following this step, the cells were loaded with calcium indicator dye, fluo-4 AM, to a final concentration of 2 μM and incubated for 40-45 min at 37° C. The dye solution was removed and replaced with assay buffer. Cell plates were held for 10-15 min at room temperature and were then loaded into the Functional Drug Screening System 6000 (FDSS 6000, Hamamatsu, Japan).
(§2) After establishment of a fluorescence baseline for about 3 seconds, the compounds of the present invention were added to the cells, and the response in cells was measured. 2.3 minutes later an EC20 concentration of the mGluR5 receptor agonist glutamate was added to the cells, and the response of the cells was measured for about 1.7 minutes. All test compounds were dissolved and diluted to a concentration of 10 mM in 100% DMSO and then serially diluted into assay buffer for a 2× stock solution in 0.6% DMSO; stock compounds were then added to the assay for a final DMSO concentration of 0.3% after the first addition to the assay well. Calcium fluorescence measures were recorded as fold over basal fluorescence; raw data was then normalized to the maximal response to glutamate. Potentiation of the agonist response of the mGluR5 receptor in the present invention was observed as an increase in response to submaximal concentrations of glutamate in the presence of compound compared to the response to glutamate in the absence of compound.
The concentration-response curves of compounds of the present invention, obtained in the presence of EC20 of mGluR5 receptor agonist glutamate to determine positive allosteric modulation, were generated using Microsoft Excel with IDBS XLfit add-ins. The raw data file containing all time points was used as the data source in the analysis template. This was saved by the FDSS as a tab-delimitted text file. Data were normalized using a static ratio function (F/F0) for each measurement of the total 350 values per well divided by each well's initial value. Data was then reduced as to peak amplitudes (Max−Initial Min) using a time range that starts approximately 1 second after the glutamate EC20 addition and continues for approximately 40 seconds. This is sufficient time to capture the peak amplitude of the cellular calcium response. Individual amplitudes were expressed as % effect by multiplying each amplitude by 100 and then dividing the product by the mean of the amplitudes derived from the glutamate ECMax-treated wells. pEC50 values for test compounds were generated by fitting the normalized values versus the log of the test compound concentration (in mol/L) using a 4 parameter logistic equation where none of the parameters were fixed. Each of the three values collected at each concentration of test compound were weighted evenly. Individual values falling outside the 95% prediction limits of the curve fit were automatically excluded from the fit. […] These two methods are in good agreement for curves with a clear plateau at the high concentration range. […] For consistency purposes across the range of potencies observed, all Emax values reported in this application are calculated using the maximum average response at a single concentration.
Functional Assay 3 was performed under the same conditions as Functional Assay 2, except that clone H12H was used instead of clone H10H.
The clones that were used in the primary functional assay gave undiscernable differences in this assay.

human mGluR5 receptor = target: T2, human mGluR5 receptor (Homo sapiens, UniProt P41594); assay: Functional Assay 1: intracellular Ca2+ mobilization, positive allosteric modulation of glutamate EC20 response; assay type: cell-based; details: for Emax: maximum % effect relative to glutamate ECMax
T2 construct: expressed in transfected cells; host or cells: HEK-293
T2 sequence (P41594 21-1180 isoform P41594-2 limits assumed): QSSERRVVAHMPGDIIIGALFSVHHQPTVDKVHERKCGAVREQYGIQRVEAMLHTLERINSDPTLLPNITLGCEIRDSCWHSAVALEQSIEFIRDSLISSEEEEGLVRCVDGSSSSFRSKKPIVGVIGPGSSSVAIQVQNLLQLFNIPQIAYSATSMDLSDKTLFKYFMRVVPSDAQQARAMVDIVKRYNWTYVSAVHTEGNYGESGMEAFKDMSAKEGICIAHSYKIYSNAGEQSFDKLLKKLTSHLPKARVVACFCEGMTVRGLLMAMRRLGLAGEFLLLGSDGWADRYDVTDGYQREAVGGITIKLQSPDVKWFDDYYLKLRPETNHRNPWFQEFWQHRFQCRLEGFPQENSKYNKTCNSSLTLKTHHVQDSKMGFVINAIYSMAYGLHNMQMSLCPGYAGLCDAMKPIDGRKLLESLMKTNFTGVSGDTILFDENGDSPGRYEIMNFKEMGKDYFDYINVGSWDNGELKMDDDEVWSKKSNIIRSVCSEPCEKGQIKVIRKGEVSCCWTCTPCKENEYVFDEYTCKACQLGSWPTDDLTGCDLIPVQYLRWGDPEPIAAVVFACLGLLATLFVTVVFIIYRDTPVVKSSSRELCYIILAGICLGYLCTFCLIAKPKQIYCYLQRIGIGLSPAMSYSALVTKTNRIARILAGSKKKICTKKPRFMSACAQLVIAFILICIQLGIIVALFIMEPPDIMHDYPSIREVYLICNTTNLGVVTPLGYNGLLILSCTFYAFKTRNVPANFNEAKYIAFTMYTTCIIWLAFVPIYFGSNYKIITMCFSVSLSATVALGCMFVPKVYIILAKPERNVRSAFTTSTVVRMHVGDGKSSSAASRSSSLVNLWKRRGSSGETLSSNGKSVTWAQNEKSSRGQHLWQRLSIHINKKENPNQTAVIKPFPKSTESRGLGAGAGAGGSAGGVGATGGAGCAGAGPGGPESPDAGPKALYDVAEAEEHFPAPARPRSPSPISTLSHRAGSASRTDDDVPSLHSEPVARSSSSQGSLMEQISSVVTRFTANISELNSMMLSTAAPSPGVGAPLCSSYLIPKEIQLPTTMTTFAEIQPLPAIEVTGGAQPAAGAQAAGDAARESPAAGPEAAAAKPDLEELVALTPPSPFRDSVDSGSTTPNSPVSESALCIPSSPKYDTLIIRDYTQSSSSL
Method: HEK-293 cells were stable transfected with human mGluR5a cDNA in expression vector pcDNA4/TO. For Assay 1, these human mGluR5 receptor over-expressing HEK-293 cells were grown at a density of 40,000 cells/well in PDL-coated 384-well plates. The following day, cells were preloaded with the calcium-sensing dye Fluo-4 AM and various concentrations of test compound were added in the absence of exogenous glutamate to test for direct agonist activity. Shortly (2.5 min) thereafter, an EC20 equivalent of glutamate (˜0.2 μM) was added. The fluorescence signal was monitored using a Hamamatsu Functional Drug Screening System (FDSS) fluorescence plate reader following the addition of compound alone (direct agonist response) and then the further addition of an EC20 of glutamate (positive allosteric modulation response). The pEC50 was defined as the negative log of the test compound concentration which produced an increase in the glutamate EC20-mediated response that was 50% of maximum. Individual amplitudes were expressed as % effect by multiplying each amplitude by 100 and then dividing the product by the mean of the amplitudes derived from the glutamate ECMax-treated wells. Emax values reported in this application are defined as the maximum % effect obtained in a concentration-response curve.

human mGluR5a receptor [2] = target: T1, human mGluR5a receptor; assay: Functional Assay 2: Ca2+ mobilization, HEK cells with human mGluR5a receptor (H10H cell line); assay type: cell-based; details: H10H cell line; for EC50: glutamate EC20; for Emax: HEK293, maximum average response at a single concentration, relative to glutamate ECMax
Method: Human mGluR5a cDNA in pCMV6-XL6 mammalian expression plasmid was purchased from OriGene Technologies, Inc. (catalogue number SC326357) and subcloned into pcDNA3.1(−). […] Monoclones were named for the species (“H” for human) plus the location on the plate (e.g. “10H”).
as §1, with “The” for “HEK cells transfected with the human mGluR5a receptor (H10H cell line) were plated at 15.000 cells/well in clear-bottomed poly-D-lysine-coated assay plates (BD Falcon) in glutamate-glutamine-free growth medium and incubated overnight at 37° C. and 5% CO2. The”
as §2, with “glutamate.” for “glutamate. Potentiation of the agonist response of the mGluR5 receptor in the present invention was observed as an increase in response to submaximal concentrations of glutamate in the presence of compound compared to the response to glutamate in the absence of compound.”
The concentration-response curves of compounds of the present invention, obtained in the presence of EC20 of mGluR5 receptor agonist glutamate to determine positive allosteric modulation, were generated using Microsoft Excel with IDBS XLfit add-ins. The raw data file containing all time points was used as the data source in the analysis template. This was saved by the FDSS as a tab-delimitted text file. Data were normalized using a static ratio function (F/F0) for each measurement of the total 350 values per well divided by each well's initial value. […] This is sufficient time to capture the peak amplitude of the cellular calcium response. […] Each of the three values collected at each concentration of test compound were weighted evenly. […] These two methods are in good agreement for curves with a clear plateau at the high concentration range.

[3] = human mGluR5 over-expressing HEK-293 cells, glutamate EC20 (~0.2 μM), updated value
[4] = original value, which was updated as compound was further tested

T1 sequence (P41594 21-1180 isoform P41594-2 limits assumed): as above

SMILES | EC50 (human mGluR5a receptor [1]) [nM] | Emax (human mGluR5a receptor [1]) [%] | melting point [°C] | EC50 (human mGluR5 receptor; [3]) [nM] | Emax (human mGluR5 receptor) [%] | EC50 (human mGluR5 receptor; [4]) [nM] | EC50 (human mGluR5a receptor [2]) [nM] | Emax (human mGluR5a receptor [2]) [%]
O=C1c2sc(COc3ccccc3)nc2CCN1c1ccc(F)cc1 [Compound 9, 5-(4-fluorophenyl)-6,7-dihydro-2-(phenoxymethyl)-thiazolo[5,4-c]pyridin-4(5H)-one] | 112 | 79 | – | – | – | – | – | –
O=C1c2sc(OCc3ccccc3)nc2CCN1Cc1ccc(F)cc1 [Compound 14, 5-[(4-fluorophenyl)methyl]-6,7-dihydro-2-(phenylmethoxy)-thiazolo[5,4-c]pyridin-4(5H)-one] | – | – | 95.8 to 99 | 5130 | 88 | 4470 | 2240 | 52
O=C1c2sc(OCc3ccccc3)nc2CCN1Cc1cccc(F)c1 [Compound 15, 5-[(3-fluorophenyl)methyl]-6,7-dihydro-2-(phenylmethoxy)-thiazolo[5,4-c]pyridin-4(5H)-one] | – | – | 80.1 to 82 | 3720 | 67 | 2570 | 912 | 59
O=C1c2sc(OCc3ccccc3)nc2CCN1Cc1ccccc1F [Compound 16, 5-[(2-fluorophenyl)methyl]-6,7-dihydro-2-(phenylmethoxy)-thiazolo[5,4-c]pyridin-4(5H)-one] | – | – | 77.4 to 79.2 | 5370 | 88 | 3630 | 1230 | 56
O=C1c2sc(OCc3cccc(F)c3)nc2CCN1c1cccc(F)c1 [Compound 27, 5-(3-fluorophenyl)-2-[(3-fluorophenyl)methoxy]-6,7-dihydro-thiazolo[5,4-c]pyridin-4(5H)-one] | – | – | 111.3 to 111.9 | 110 | 57 | – | – | –
O=C1c2sc(COc3cccc(F)c3)nc2CCN1c1ccc(F)cc1F [Compound 28, 5-(2,4-difluorophenyl)-2-[(3-fluorophenoxy)methyl]-6,7-dihydro-thiazolo[5,4-c]pyridin-4(5H)-one] | 85.1 | 63 | – | – | – | – | – | –
C[C@@H](N1CCc2nc(COc3ccccc3)sc2C1=O)C(C)(C)C [Compound 35, 6,7-dihydro-2-(phenoxymethyl)-5-[(1R)-1,2,2-trimethylpropyl]-thiazolo[5,4-c]pyridin-4(5H)-one] | 794 | 60 | – | – | – | – | – | –
O=C1c2sc(COc3ccc(Cl)cc3)nc2CCN1c1ccc(F)cc1 [Compound 60, 2-[(4-chlorophenoxy)methyl]-5-(4-fluorophenyl)-6,7-dihydro-thiazolo[5,4-c]pyridin-4(5H)-one] | – | – | 186.9 | > 30200 | 28 | – | – | –
O=C1c2sc(OCc3ccc(F)c(F)c3)nc2CCN1c1ccc(F)cc1F [Compound 74, 5-(2,4-difluorophenyl)-2-[(3,4-difluorophenyl)methoxy]-6,7-dihydro-thiazolo[5,4-c]pyridin-4(5H)-one] | – | – | 136.9 to 137.2 | > 30200 | 32 | – | – | –
N#Cc1ccc(COc2nc3c(s2)C(=O)N(c2ccc(F)cc2F)CC3)cc1 [Compound 75, 4-[[[5-(2,4-difluorophenyl)-4,5,6,7-tetrahydro-4-oxothiazolo[5,4-c]pyridin-2-yl]oxy]methyl]-benzonitrile] | – | – | 180.9 to 183.1 | > 30200 | 19 | – | – | –
O=C1c2sc(OCc3ccc(C(F)(F)F)cc3)nc2CCN1c1ccc(F)cc1F [Compound 78, 5-(2,4-difluorophenyl)-6,7-dihydro-2-[[4-(trifluoromethyl)phenyl]methoxy]-thiazolo[5,4-c]pyridin-4(5H)-one] | – | – | > 280 | > 30200 | 27 | – | – | –
O=C1c2sc(OCc3ccccc3C(F)(F)F)nc2CCN1c1ccc(F)cc1F [Compound 81, 5-(2,4-difluorophenyl)-6,7-dihydro-2-[[2-(trifluoromethyl)phenyl]methoxy]-thiazolo[5,4-c]pyridin-4(5H)-one] | – | – | > 280 | > 30200 | 25 | – | – | –

Continued, values first:

EC50 (human mGluR5a receptor [1]) [nM] | Emax (human mGluR5a receptor [1]) [%] | melting point [°C] | EC50 (human mGluR5 receptor; [3]) [nM] | Emax (human mGluR5 receptor) [%] | EC50 (human mGluR5 receptor; [4]) [nM] | EC50 (human mGluR5a receptor [2]) [nM] | Emax (human mGluR5a receptor [2]) [%] | SMILES
– | – | 135 | 1950 | 71 | 550 | 182 | 67 | O=C1c2sc(OCc3ccccc3)nc2CCN1c1ccc(F)cc1F [Compound 12, 5-(2,4-difluorophenyl)-6,7-dihydro-2-(phenylmethoxy)-thiazolo[5,4-c]pyridin-4(5H)-one]
– | – | 121.1 to 122.7 | 692 | 82 | 741 | 295 | 61 | O=C1c2sc(OCc3cccc(F)c3)nc2CCN1c1ccc(F)cc1F [Compound 17, 5-(2,4-difluorophenyl)-2-[(3-fluorophenyl)methoxy]-6,7-dihydro-thiazolo[5,4-c]pyridin-4(5H)-one]
– | – | 78.9 to 80.7 | 617 | 76 | 513 | 427 | 72 | O=C1c2sc(OCc3ccccc3F)nc2CCN1c1ccc(F)cc1F [Compound 18, 5-(2,4-difluorophenyl)-2-[(2-fluorophenyl)methoxy]-6,7-dihydro-thiazolo[5,4-c]pyridin-4(5H)-one]
– | – | 166.1 to 168.3 | > 30200 | 19 | – | – | – | N#Cc1ccccc1COc1nc2c(s1)C(=O)N(c1ccc(F)cc1F)CC2 [Compound 76, 2-[[[5-(2,4-difluorophenyl)-4,5,6,7-tetrahydro-4-oxothiazolo[5,4-c]pyridin-2-yl]oxy]methyl]-benzonitrile]
– | – | > 280 | > 30200 | 21 | – | – | – | COc1ccccc1COc1nc2c(s1)C(=O)N(c1ccc(F)cc1F)CC2 [Compound 79, 5-(2,4-difluorophenyl)-6,7-dihydro-2-[(2-methoxyphenyl)methoxy]-thiazolo[5,4-c]pyridin-4(5H)-one]
